The text below walks through data of patent publication US20210338665A1, “MEDICAL USE OF PROSTACYCLIN RECEPTOR AGONIST” (CHINESE PLA GENERAL HOSPITAL, priority 2018, published 2021).

This test relates to SD rats in a low-pressure low-oxygen environment. Description: Rat high altitude model in a low-pressure low-oxygen cabin (380 mmHg, simulated altitude of 5,500 meters): cardio-pulmonary function. The test is classed as in vivo. The note with it: twice every day for 14 days, compared with the model group; for mean pulmonary arterial pressure (mPAP): P<0.05. As for the experimental part: 40 SD rats (about 200 g, male, clean) are purchased from Beijing Vital River Laboratory Animal Technology Co. Ltd and have the license number of SCXK(Jing)2016-0006. The SD rats are fed in a low-pressure oxygen cabin, and regularly fed with a complete nutritional feed under the conditions of the room temperature of 22 to 25° C. and the humidity of 30% to 50%.
Solvent configuration: 20% of HP-β-CD and 80% of double distilled water, and pH=8.
A blank control group: normal-pressure normal-oxygen feeding
A model group: a low-pressure low-oxygen cabin, and intragastric administration of a solvent
An experimental group A: a low-pressure low-oxygen cabin, and intragastric administration of sc0253 (5 mg/kg) as well as a solvent
An experimental group B: a low-pressure low-oxygen cabin, and intragastric administration of sc0253 (10 mg/kg) as well as a solvent
40 rats are randomly divided into four groups, and each group includes 10 rats. 3 groups are placed into an experiment module, the pressure inside the module is regulated to 380 mmHg, a high altitude environment with an altitude of 5,500 meters is simulated, the experiment module is opened for 1 hour every day so as to add feed and water for animals and carry out corresponding medicine treatment, meanwhile, the environment where the rats are positioned are kept alternate day and night according to a ratio of 12h:12h, and after 14 days, intragastric administration is respectively carried out in which the solvent (the model group), the sc0253 (5 mg/kg) and the solvent (the experimental group A) or the sc0253 (10 mg/kg) and the solvent (the experimental group B) are respectively applied, and the operation is carried out twice every day and continued for 14 days. Rats in the fourth group are placed in the same room to be fed in the normal-pressure normal-oxygen environment (the blank control group).
3% pentobarbital sodium (0.2 mL/100 g) is intraperitoneally injected to anesthetize the rats, and ultrasonic detection is carried out. The following ultrasonic data is recorded: right ventricular ejection fraction (RVEF); and right ventricular fractional shortening (RVFS). Then the anesthetized rats are fixed on an operating table in a supine position mode, tracheotomy is carried out, a breathing machine is connected, thoracotomy is carried out to expose the hearts, a catheter is inserted into each right ventricle, right heart catheterization is carried out, and the right ventricular systolic pressure is recorded. Then each catheter is slowly pushed forwards, and can reach a corresponding pulmonary artery through a corresponding right ventricular outflow tract, the pressure waveform of a monitor is observed, and the mean pulmonary arterial pressure mPAP is recorded. The rats are executed, the hearts are taken out, the atrial tissue and attached fat are removed, left and right ventricles are separated, moisture is sucked up by filter paper, the weights of the right ventricles and the left ventricles are respectively weighed, and (RV/(LV+IS)) is calculated.
All the data is represented by x±s, comparison among the groups is single factor analysis of variance, when P<0.05, it represents that the difference has a statistical significance, and statistical treatment is carried out by adopting an SPSS19.0 software package.

Where [1] appears, read: experimental group B: sc0253 10 mg/kg intragastric, ultrasonic detection, P<0.01.

For the molecule `O=C(O)COCC1(F)CCN(c2cncc(N(c3ccccc3)c3ccc(F)cn3)n2)CC1` [sc0253], the “mean pulmonary arterial pressure (mPAP)” value (experimental group A: sc0253 5 mg/kg intragastric) is listed as “obviously reduced”. Besides, the “right ventricular hypertrophy index RV/(LV+OS)” value (experimental group B: sc0253 10 mg/kg intragastric, P<0.01) is listed as “obviously reduced”. Under “experimental group B: sc0253 10 mg/kg intragastric”, the “mean pulmonary arterial pressure (mPAP)” value is recorded as “obviously reduced”. Further, under setting [1], the “right ventricular ejection fraction (RVEF)” value was “obviously increased” and the “right ventricular fractional shortening (RVFS)” value was “obviously increased”.
